Source: PubChem BioAssay (NCI)
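How tested: cells in 96-well plates exposed to compound for 48 hours at five concentrations. The concentration for 50% growth inhibition is given as GI50. TGI marks complete inhibition of growth.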

How the values were obtained:
Assay in all cases: inhibition of tumour cell growth, NCI panel, 48 h
HCT-15 colon = test system: HCT-15 colon
PC-3 prostate = test system: PC-3 prostate
NCI-H460 lung = test system: NCI-H460 lung
SF-295 CNS = test system: SF-295 CNS
MOLT-4 leukemia = test system: MOLT-4 leukemia
K-562 leukemia = test system: K-562 leukemia
SK-OV-3 ovarian = test system: SK-OV-3 ovarian
HCC-2998 colon = test system: HCC-2998 colon
SK-MEL-28 melanoma = test system: SK-MEL-28 melanoma
HOP-92 NSCLC = test system: HOP-92 NSCLC
NCI-H23 lung = test system: NCI-H23 lung
OVCAR-8 ovarian = test system: OVCAR-8 ovarian
CCRF-CEM leukemia = test system: CCRF-CEM leukemia
HL-60(TB) leukemia = test system: HL-60(TB) leukemia
EKVX NSCLC = test system: EKVX NSCLC
NCI-H226 lung = test system: NCI-H226 lung
IGROV1 ovarian = test system: IGROV1 ovarian
UO-31 renal = test system: UO-31 renal
SNB-19 CNS = test system: SNB-19 CNS
MDA-MB-231 breast = test system: MDA-MB-231 breast
A549 NSCLC = test system: A549 NSCLC
SK-MEL-5 melanoma = test system: SK-MEL-5 melanoma
HCT-116 colon = test system: HCT-116 colon
SF-268 CNS = test system: SF-268 CNS
T-47D breast = test system: T-47D breast
MDA-MB-468 breast = test system: MDA-MB-468 breast
HT29 colon = test system: HT29 colon
COLO 205 colon = test system: COLO 205 colon
KM12 colon = test system: KM12 colon
UACC-257 melanoma = test system: UACC-257 melanoma
BT-549 breast = test system: BT-549 breast
TK-10 renal = test system: TK-10 renal
A498 renal = test system: A498 renal
MDA-MB-435 = test system: MDA-MB-435
U251 CNS = test system: U251 CNS
LOX IMVI melanoma = test system: LOX IMVI melanoma
HS 578T breast = test system: HS 578T breast
786-0 renal = test system: 786-0 renal
RXF 393 renal = test system: RXF 393 renal
HOP-62 NSCLC = test system: HOP-62 NSCLC
SK-MEL-2 melanoma = test system: SK-MEL-2 melanoma
OVCAR-3 ovarian = test system: OVCAR-3 ovarian
NCI/ADR-RES ovarian = test system: NCI/ADR-RES ovarian
MCF7 breast = test system: MCF7 breast
SNB-75 CNS = test system: SNB-75 CNS
UACC-62 melanoma = test system: UACC-62 melanoma
DU-145 prostate = test system: DU-145 prostate
OVCAR-4 ovarian = test system: OVCAR-4 ovarian
ACHN renal = test system: ACHN renal
M14 melanoma = test system: M14 melanoma
NCI-H522 lung = test system: NCI-H522 lung
MALME-3M melanoma = test system: MALME-3M melanoma
SW-620 colon = test system: SW-620 colon
CAKI-1 renal = test system: CAKI-1 renal
SR leukemia = test system: SR leukemia
RPMI-8226 leukemia = test system: RPMI-8226 leukemia
SF-539 CNS = test system: SF-539 CNS
OVCAR-5 ovarian = test system: OVCAR-5 ovarian
SN12C renal = test system: SN12C renal

Cc1ccc(/C=C/C(=O)c2ccc(S(=O)(=O)NCCNc3nc(Nc4ccc(F)cc4)nc(N(C)C)n3)cc2)cc1
GI50 (HCT-15 colon): 3.92 µM | TGI (HCT-15 colon): 10.9 µM | GI50 (PC-3 prostate): 3.54 µM | TGI (PC-3 prostate): 18.2 µM | GI50 (NCI-H460 lung): 4.22 µM | TGI (NCI-H460 lung): 15.8 µM | GI50 (SF-295 CNS): 11.5 µM | TGI (SF-295 CNS): 23.8 µM | GI50 (MOLT-4 leukemia): 3.86 µM | TGI (MOLT-4 leukemia): 48.6 µM | GI50 (K-562 leukemia): 3.89 µM | TGI (K-562 leukemia): 25.3 µM | GI50 (SK-OV-3 ovarian): 17 µM | TGI (SK-OV-3 ovarian): 45.9 µM | GI50 (HCC-2998 colon): 4.5 µM | TGI (HCC-2998 colon): 15.8 µM | GI50 (SK-MEL-28 melanoma): 11.3 µM | TGI (SK-MEL-28 melanoma): 23.7 µM | GI50 (HOP-92 NSCLC): 7.63 µM | TGI (HOP-92 NSCLC): 22.2 µM | GI50 (NCI-H23 lung): 11.3 µM | TGI (NCI-H23 lung): 23.8 µM | GI50 (OVCAR-8 ovarian): 13 µM | TGI (OVCAR-8 ovarian): 27 µM | GI50 (CCRF-CEM leukemia): 5.28 µM | TGI (CCRF-CEM leukemia): > 100 µM | GI50 (HL-60(TB) leukemia): 5.58 µM | TGI (HL-60(TB) leukemia): 32.1 µM | GI50 (EKVX NSCLC): 4.96 µM | TGI (EKVX NSCLC): 16.9 µM | GI50 (NCI-H226 lung): 10.4 µM | TGI (NCI-H226 lung): 25.8 µM | GI50 (IGROV1 ovarian): 15.1 µM | TGI (IGROV1 ovarian): 31 µM | GI50 (UO-31 renal): 6.77 µM | TGI (UO-31 renal): 19.8 µM | GI50 (SNB-19 CNS): 11 µM | TGI (SNB-19 CNS): 23.6 µM | GI50 (MDA-MB-231 breast): 6.56 µM | TGI (MDA-MB-231 breast): 20 µM | GI50 (A549 NSCLC): 10.5 µM | TGI (A549 NSCLC): 28.6 µM | GI50 (SK-MEL-5 melanoma): 8.25 µM | TGI (SK-MEL-5 melanoma): 20.7 µM | GI50 (HCT-116 colon): 1.75 µM | TGI (HCT-116 colon): 3.28 µM | GI50 (SF-268 CNS): 8.76 µM | TGI (SF-268 CNS): 29.2 µM | GI50 (T-47D breast): 3.86 µM | TGI (T-47D breast): 17.8 µM | GI50 (MDA-MB-468 breast): 4.66 µM | TGI (MDA-MB-468 breast): 17 µM | GI50 (HT29 colon): 2.38 µM | TGI (HT29 colon): 5.25 µM | GI50 (COLO 205 colon): 6.51 µM | TGI (COLO 205 colon): 20.9 µM | GI50 (KM12 colon): 5.41 µM | TGI (KM12 colon): 24.5 µM | GI50 (UACC-257 melanoma): 17.4 µM | TGI (UACC-257 melanoma): 33.1 µM | GI50 (BT-549 breast): 15.7 µM | TGI (BT-549 breast): 30.1 µM | GI50 (TK-10 renal): 15.2 µM | TGI (TK-10 renal): 30.7 µM | GI50 (A498 renal): 12.6 µM | TGI (A498 renal): 25.5 µM | GI50 (MDA-MB-435): 6.03 µM | TGI (MDA-MB-435): 21.6 µM | GI50 (U251 CNS): 11.6 µM | TGI (U251 CNS): 26 µM | GI50 (LOX IMVI melanoma): 4.12 µM | TGI (LOX IMVI melanoma): 15.3 µM | GI50 (HS 578T breast): 10.7 µM | TGI (HS 578T breast): 47.4 µM | GI50 (786-0 renal): 10.5 µM | TGI (786-0 renal): 23.1 µM | GI50 (RXF 393 renal): 4.98 µM | TGI (RXF 393 renal): 18.2 µM | GI50 (HOP-62 NSCLC): 15.3 µM | TGI (HOP-62 NSCLC): 31.4 µM | GI50 (SK-MEL-2 melanoma): 11.2 µM | TGI (SK-MEL-2 melanoma): 24.2 µM | GI50 (OVCAR-3 ovarian): 11.3 µM | TGI (OVCAR-3 ovarian): 24.8 µM | GI50 (NCI/ADR-RES ovarian): 8.39 µM | TGI (NCI/ADR-RES ovarian): 21.1 µM | GI50 (MCF7 breast): 2.01 µM | TGI (MCF7 breast): 5.8 µM | GI50 (SNB-75 CNS): 7.59 µM | TGI (SNB-75 CNS): 45 µM | GI50 (UACC-62 melanoma): 8.4 µM | TGI (UACC-62 melanoma): 21.1 µM | GI50 (DU-145 prostate): 14 µM | TGI (DU-145 prostate): 32.4 µM | GI50 (OVCAR-4 ovarian): 7.79 µM | TGI (OVCAR-4 ovarian): 33.8 µM | GI50 (ACHN renal): 6.31 µM | TGI (ACHN renal): 18.9 µM | GI50 (M14 melanoma): 5.91 µM | TGI (M14 melanoma): 19.7 µM | GI50 (NCI-H522 lung): 5.24 µM | TGI (NCI-H522 lung): 18.1 µM | GI50 (MALME-3M melanoma): 16.4 µM | TGI (MALME-3M melanoma): 31.6 µM | GI50 (SW-620 colon): 7.53 µM | TGI (SW-620 colon): 20.9 µM | GI50 (CAKI-1 renal): 6.98 µM | TGI (CAKI-1 renal): 22.6 µM | GI50 (SR leukemia): 2.76 µM | TGI (SR leukemia): 11.2 µM | GI50 (RPMI-8226 leukemia): 2.73 µM | TGI (RPMI-8226 leukemia): 8.28 µM | GI50 (SF-539 CNS): 13 µM | TGI (SF-539 CNS): 25.9 µM | GI50 (OVCAR-5 ovarian): 14.9 µM | TGI (OVCAR-5 ovarian): 28.2 µM | GI50 (SN12C renal): 11.2 µM | TGI (SN12C renal): 23.4 µM
